# Measured values from PubChem BioAssay AID1918999 (Molecular Pharmacology Branch, DTP, NCI, 2023).
# Test system: 556581-035-R-J1-PDC complex spheroid growth
# Experiment: Anticancer human tumor 556581-035-R-J1-PDC patient-derived ovarian carcinoma cell line growth inhibition [AhR]
# Details: for IC50: curve of first compound; for viability, T/C: stronger effect = lower value
# Outline: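 Spheroids combined tumor cells with HUVEC endothelial cells and human MSCs as stroma. AhR antagonists were paired with standard or investigational drugs, each dosed in half-log steps down from near clinical Cmax, or from 10 microM where Cmax was unknown.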
# [1] = second compound 0.1 µM, first compound 0.00949 µM
# [2] = second compound 0.1 µM, first compound 0.03 µM
# [3] = second compound 0.1 µM, first compound 0.0949 µM
# [4] = second compound 0.1 µM, first compound 0.3 µM
# [5] = second compound 0.316 µM, first compound 0.00949 µM
# [6] = second compound 0.316 µM, first compound 0.03 µM
# [7] = second compound 0.316 µM, first compound 0.0949 µM
# [8] = second compound 0.316 µM, first compound 0.3 µM
# [9] = second compound 1 µM, first compound 0.00949 µM
# [10] = second compound 1 µM, first compound 0.03 µM
# [11] = second compound 1 µM, first compound 0.0949 µM
# [12] = second compound 1 µM, first compound 0.3 µM
# [13] = second compound 3.16 µM, first compound 0.00949 µM
# [14] = second compound 3.16 µM, first compound 0.03 µM
# [15] = second compound 3.16 µM, first compound 0.0949 µM
# [16] = second compound 3.16 µM, first compound 0.3 µM
# [17] = second compound 10 µM, first compound 0.00949 µM
# [18] = second compound 10 µM, first compound 0.03 µM
# [19] = second compound 10 µM, first compound 0.0949 µM
# [20] = second compound 10 µM, first compound 0.3 µM
# 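Throughout, for viability, T/C: compound exposure lasted 7 days; 100% = DMSO vehicle control growth.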
compound,measurement,setting,value
CC1COCCN1c1cc(C2(S(C)(=N)=O)CC2)nc(-c2ccnc3[nH]ccc23)n1 (stereo not given) + Cc1cncc(-c2nc(NCCc3c[nH]c4ccccc34)c3ncn(C(C)C)c3n2)c1,IC50,second compound 0.1 µM,> 10 µM
same,IC50,second compound 0.316 µM,> 10 µM
same,IC50,second compound 1 µM,> 10 µM
same,IC50,second compound 3.16 µM,> 10 µM
same,IC50,second compound 10 µM,> 10 µM
same,"viability, T/C","second compound 0.1 µM, first compound 0.0316 µM",103%
same,"viability, T/C","second compound 0.1 µM, first compound 0.1 µM",104%
same,"viability, T/C","second compound 0.1 µM, first compound 0.316 µM",92.2%
same,"viability, T/C","second compound 0.1 µM, first compound 1 µM",93.3%
same,"viability, T/C","second compound 0.1 µM, first compound 3.16 µM",73.5%
same,"viability, T/C","second compound 0.1 µM, first compound 10 µM",67.4%
same,"viability, T/C","second compound 0.316 µM, first compound 0.0316 µM",99%
same,"viability, T/C","second compound 0.316 µM, first compound 0.1 µM",97.9%
same,"viability, T/C","second compound 0.316 µM, first compound 0.316 µM",99.4%
same,"viability, T/C","second compound 0.316 µM, first compound 1 µM",95.4%
same,"viability, T/C","second compound 0.316 µM, first compound 3.16 µM",82.5%
same,"viability, T/C","second compound 0.316 µM, first compound 10 µM",68.9%
same,"viability, T/C","second compound 1 µM, first compound 0.0316 µM",101%
same,"viability, T/C","second compound 1 µM, first compound 0.1 µM",106%
same,"viability, T/C","second compound 1 µM, first compound 0.316 µM",102%
same,"viability, T/C","second compound 1 µM, first compound 1 µM",94.7%
same,"viability, T/C","second compound 1 µM, first compound 3.16 µM",85%
same,"viability, T/C","second compound 1 µM, first compound 10 µM",67.3%
same,"viability, T/C","second compound 3.16 µM, first compound 0.0316 µM",111%
same,"viability, T/C","second compound 3.16 µM, first compound 0.1 µM",103%
same,"viability, T/C","second compound 3.16 µM, first compound 0.316 µM",92.2%
same,"viability, T/C","second compound 3.16 µM, first compound 1 µM",99.2%
same,"viability, T/C","second compound 3.16 µM, first compound 3.16 µM",74.2%
same,"viability, T/C","second compound 3.16 µM, first compound 10 µM",78.2%
same,"viability, T/C","second compound 10 µM, first compound 0.0316 µM",80.4%
same,"viability, T/C","second compound 10 µM, first compound 0.1 µM",90.1%
same,"viability, T/C","second compound 10 µM, first compound 0.316 µM",80.7%
same,"viability, T/C","second compound 10 µM, first compound 1 µM",90.9%
same,"viability, T/C","second compound 10 µM, first compound 3.16 µM",79.5%
same,"viability, T/C","second compound 10 µM, first compound 10 µM",63.8%
Nc1ncn(C2CC(O)C(CO)S2)c(=O)n1 (stereo not given) + Cc1cncc(-c2nc(NCCc3c[nH]c4ccccc34)c3ncn(C(C)C)c3n2)c1,IC50,second compound 0.1 µM,> 0.3 µM
same,IC50,second compound 0.316 µM,> 0.3 µM
same,IC50,second compound 1 µM,> 0.3 µM
same,IC50,second compound 3.16 µM,> 0.3 µM
same,IC50,second compound 10 µM,> 0.3 µM
same,"viability, T/C","second compound 0.1 µM, first compound 0.000949 µM",99.3%
same,"viability, T/C","second compound 0.1 µM, first compound 0.003 µM",102%
same,"viability, T/C",[1],88.9%
same,"viability, T/C",[2],93.8%
same,"viability, T/C",[3],82%
same,"viability, T/C",[4],67.3%
same,"viability, T/C","second compound 0.316 µM, first compound 0.000949 µM",113%
same,"viability, T/C","second compound 0.316 µM, first compound 0.003 µM",109%
same,"viability, T/C",[5],111%
same,"viability, T/C",[6],93.2%
same,"viability, T/C",[7],81%
same,"viability, T/C",[8],68%
same,"viability, T/C","second compound 1 µM, first compound 0.000949 µM",116%
same,"viability, T/C","second compound 1 µM, first compound 0.003 µM",109%
same,"viability, T/C",[9],99.5%
same,"viability, T/C",[10],106%
same,"viability, T/C",[11],85.7%
same,"viability, T/C",[12],80.4%
same,"viability, T/C","second compound 3.16 µM, first compound 0.000949 µM",87.7%
same,"viability, T/C","second compound 3.16 µM, first compound 0.003 µM",84.8%
same,"viability, T/C",[13],95.8%
same,"viability, T/C",[14],94.3%
same,"viability, T/C",[15],79.5%
same,"viability, T/C",[16],72.9%
same,"viability, T/C","second compound 10 µM, first compound 0.000949 µM",84.7%
same,"viability, T/C","second compound 10 µM, first compound 0.003 µM",86.7%
same,"viability, T/C",[17],91.6%
same,"viability, T/C",[18],87.3%
same,"viability, T/C",[19],79.4%
same,"viability, T/C",[20],72.6%
O=C(C=Cn1cnc(-c2cc(C(F)(F)F)cc(C(F)(F)F)c2)n1)NNc1cnccn1 + Cc1cncc(-c2nc(NCCc3c[nH]c4ccccc34)c3ncn(C(C)C)c3n2)c1,IC50,second compound 0.1 µM,> 3 µM
same,IC50,second compound 0.316 µM,> 3 µM
same,IC50,second compound 1 µM,1.86 µM
same,IC50,second compound 3.16 µM,> 3 µM
same,IC50,second compound 10 µM,> 3 µM
same,"viability, T/C",[1],94.2%
same,"viability, T/C",[2],99.9%
same,"viability, T/C",[3],95.5%
same,"viability, T/C",[4],85.9%
same,"viability, T/C","second compound 0.1 µM, first compound 0.949 µM",70.8%
same,"viability, T/C","second compound 0.1 µM, first compound 3 µM",56.3%
same,"viability, T/C",[5],85.5%
same,"viability, T/C",[6],96.2%
same,"viability, T/C",[7],74.8%
same,"viability, T/C",[8],73.8%
same,"viability, T/C","second compound 0.316 µM, first compound 0.949 µM",62.6%
same,"viability, T/C","second compound 0.316 µM, first compound 3 µM",50.1%
same,"viability, T/C",[9],93.9%
same,"viability, T/C",[10],94.8%
same,"viability, T/C",[11],87.5%
same,"viability, T/C",[12],78.2%
same,"viability, T/C","second compound 1 µM, first compound 0.949 µM",65.4%
same,"viability, T/C","second compound 1 µM, first compound 3 µM",39.4%
same,"viability, T/C",[13],92.8%
same,"viability, T/C",[14],97.1%
same,"viability, T/C",[15],95.9%
same,"viability, T/C",[16],74.8%
same,"viability, T/C","second compound 3.16 µM, first compound 0.949 µM",57.3%
same,"viability, T/C","second compound 3.16 µM, first compound 3 µM",50.4%
same,"viability, T/C",[17],81.6%
same,"viability, T/C",[18],84.6%
same,"viability, T/C",[19],73.9%
same,"viability, T/C",[20],72.7%
same,"viability, T/C","second compound 10 µM, first compound 0.949 µM",64.8%
same,"viability, T/C","second compound 10 µM, first compound 3 µM",68.9%
